The data set deals with left carotid artery. Nature of the data set: Glycerol infusion into the artery (cannulation) during carotid injury surgery. Format: in vivo, rat. Particulars: glycerol infused into the artery, compared to glycerol coated on a balloon. How it is done: In total, nine surgeries were performed on nine separate rats. The initial two surgeries represented the first control group—standard left carotid artery injury surgeries. The next two surgeries comprised the second control group—rats which received a standard left carotid artery injury surgery, modified slightly to include a glycerol coating without nanoparticles-carried plasmids on the catheter to test whether or not the substance (without the shRNA-encoding plasmid) had any noteworthy effects on the artery and/or the overall health of the animal before the nanoparticle treatment was delivered. The balloon was immersed in glycerol until 100 μL had covered its surface. Another two surgeries served as an experimental group to compare the method of delivery with the glycerol-coated balloon to a more direct method of delivery: infusion. After the arteriotomy was performed, the artery was cannulated (filled) with a syringe of 100 μL of 50% glycerol and flushed. The procedure then proceeded as previously described. The last three surgeries served as the experimental group utilizing the nanoparticles suspended in the glycerol that coated the balloon.
Intimal hyperplasia was further quantified using a software program, Image J, developed by the National Institutes of Health, which calculates the intimal area through image analysis. […]

From patent US20180126048A1, “NANOPARTICLE-MEDICATED GENETIC DELIVERY OF GROWTH INHIBITING GENES ON BALLOON ANGIOPLASTY TO SUPPRESS INTIMAL HYPERPLASIA” (Board of Education of the Vocational Schools in the County …, priority 2014, published 2018) come the findings set out here.

For `OCC(O)CO` [glycerol], the “blood clot formation after infusion” value is “blood clot formation”.
